What was measured:
VSMC-E1A [1] = assay: Chromatin cleavage assay in VSMC-E1A; format: cell-based, rat
Method: FIG. 2. Effect of ouabain on chromatin cleavage in VSMC-E1A. (A) Kinetics of the accumulation of chromatin fragments in control (curves 1, 3) and ouabain-treated (curves 2, 4) VSMC-E1A in the presence of 10% calf serum (CS, curves 1, 2) or in CS-free medium (curves 3, 4). Mean values ±S.E. obtained in experiments performed in quadruplicate are given. (B) Content of chromatin fragments in VSMC-E1A subjected to 6 hr of incubation in serum-supplied medium with or without 1 mM ouabain, 0.25 μM staurosporine, 1 μM okadaic acid and 350 mM mannitol. Mean values±S.E. obtained in 3 experiments performed in quadruplicate are given. ★, ★★ p<0.05 and 0.001 compared to ouabain-untreated cells. In both experiments, ouabain was added 1 hour before triggering of apoptosis.
Cells were incubated in K^+-containing medium consisting of 91 mM NaCl, 5 mM KCl, 0.9 mM NaH2PO4, 44 mM NaHCO3, 1.8 mM CaCl2, 0.8 mM MgCl2, 33 mM HEPES and 5 mM D-glucose (pH 7.4) (lines 1 and 2) or in K^+-depleted medium (equimolar substitution of KCl by NaCl, line 3) with or without 10% calf serum (CS) and 1 mM ouabain as indicated. In experiments with VSMC-MYC and VSMC-E1A, cells were preincubated for 1 hr with ouabain or with K^+-depleted medium in the presence of CS and then subjected to treatment with serum-free media. After 24 hours (VSMC) or 6 hours (VSMC-MYC and VSMC-E1A), the content of chromatin fragments was measured as described in Experimental Procedures. Mean values±S.E. obtained in 3 experiments performed in quadruplicate (VSMC) or triplicate (VSMC-MYC, VSMC-E1A) are given. ★, ★★ p<0.05 and 0.001 compared to the controls.
(§1) To estimate chromatin cleavage, cells were incubated for 1 hr in the presence of 10% calf serum (CS) in the control solution (DMEM, [Na^+]=137 mM; [K^+]=5 mM—line 1) or under equimolar substitution of NaCl by KCl ([Na^+]=14 mM; [K^+]=128 mM—line 2) with or without 1 mM ouabain and then for an additional 6 hours in the same media with or without CS. Intracellular Na^+ and K^+ content was measured as steady-state distribution of isotopes after 24 hours preincubation of cells in control Na^+-enriched solution containing 0.5 μCi/ml ^86Rb or 2 μCilml ^22Na, and additional 6 hours incubation in Na^+—(line 1) or K^+—(line 2) enriched medium, containing 10% CS and isotopes with the same specific activity with or without 1 mM ouabain. For more details see Experimental Procedures. Mean values±S.E. obtained in 3 experiments performed in triplicate (ion content) or quadruplicate (chromatin cleavage) are given. ★p<0.001 compared to ouabain-untreated cells.
VSMC-E1A cells were pretreated with compounds indicated in the left column during 2 hours in DMEM containing 10% calf serum and then additional 3 hours in the absence or presence of calf serum. The increment of the content of chromatin fragments triggered by serum withdrawal in control cells was taken as 100%. Means+S.E. from experiments performed with quadruplicate are given. ★p<0.001 as compared to control.
Cells. VSMC were obtained by explant methods from aortas of 10- to 13-week-old male rats as described previously (17), cultured in DMEM with 10% calf serum, 100 U/ml penicillin, 100 µg/ml streptomycin and used between 10 to 16 passages. Cells transfected with c-myc (VSMC-MYC) and E1A-adenovirus (VSMC-E1A) were obtained in accordance with a previously-described protocol (18,19) and were cultured in the same medium with the addition of 500 µg/ml genticin. Jurkat cells were obtained from the American Type Culture Collection and cultured in RPMI 1640 medium supplied with 10% calf serum, antibiotics, sodium pyruvate, glutamate and β-mercaptoethanol.
Chromatin cleavage assay. Chromatin cleavage in VSMC was estimated by a technique described previously in detail (10). Briefly, VSMC grown in 24-well dishes were labeled for 24 hours in serum-supplied DMEM with [^3H]-thymidine (1 μCi/ml), washed with 2×2 ml of DMEM and incubated in serum-supplied DMEM. […]

VSMC-E1A [2] = assay: Intracellular Na+ and K+ content in VSMC-E1A; format: cell-based, rat; settings: for Intracellular cations K^+i / Intracellular cations Na^+i: ouabain-treated VSMC-E1A, 1 mM, 6 hours
Method: FIG. 1. Kinetics of modulation of intracellular Na^+ (1, 2) and K^+ (3, 4) content by ouabain in VSMC-E1A (1, 3) and Jurkat cells (2, 4). Cells were preincubated for 24 hours in the presence of 10% calf serum in control medium consisting of 91 mM NaCl, 5 mM KCl, 0.9 mM NaH2PO4, 44 mM NaHCO3, 1.8 mM CaCl2, 0.8 mM MgCl2, 33 mM HEPES and 5 mM D-glucose (pH 7.4) with 2 μCi/ml of ^22Na or 0.5 μCi/ml ^86Rb, and 1 mM ouabain was added at the time interval indicated by the arrow. At specific time-points, intracellular Na^+ and K content + was measured as described in Experimental Procedures. Mean values±S.E. obtained in experiments performed in quadruplicate (VSMC-E1A) or triplicate (Jurkat cells) are given.
as §1
Intracellular Na^+ and K^+ content. The intracellular content of exchangeable Na^+ and K^+ was measured as steady-state distribution of extra- and intracellular ^22Na and ^86Rb, as described previously in detail (22). Briefly, to establish the steady-state distribution of isotopes, VSMC growing in 12× (^22Na) or 24× (^86Rb) well plates or ˜10^6 Jurkat cells in suspension were preincubated for 24 hours in DMEM containing 10% calf serum and 0.5 μCi/ml ^86RbCl or 2 μCi/ml ^22NaCl and then treated in media with compositions shown in FIG. 1 and Tables 3 and 4 and with the same specific radioactivity. At the end of incubation, the VSMC were transferred on ice, washed 4 times with 2 ml of ice-cold medium W, containing 100 mM MgCl2 and 10 mM HEPES-tris buffer (pH 7.4), and lysed with SDS/EDTA mixture. One ml of Jurkat cell suspension was applied on a Whatman type C filter with the cells being washed with 3×5 ml aliquots of ice-cold medium W under negative pressure of 20-30 mm Hg. Radioactivity of the incubation medium and cell lysate was measured with a liquid scintillation analyzer and intracellular cation content was determined as A/am, where A was the radioactivity of the samples (cpm), a was the specific radioactivity of Na^+ and K^+(^86Rb) in the medium (cpm/nmol), and m was the protein content determined by Lowry methods.

Structure (SMILES): C[C@@H]1O[C@@H](O[C@H]2C[C@@H](O)[C@]3(CO)[C@H]4[C@H](O)C[C@]5(C)[C@@H](C6=CC(=O)OC6)CC[C@]5(O)[C@@H]4CC[C@]3(O)C2)[C@H](O)[C@H](O)[C@H]1O [Ouabain, 1β,3β,5,11α,14,19-hexahydroxycard 20 [22]-enolide 3-[6-deoxy-α-L-mannopyrano-sidel]]
- apoptosis triggered by staurosporine and okadaic acid (VSMC-E1A [1]; VSMC-E1A, 1 mM ouabain, FIG. 2b): blocked
- Increment of chromatin fragments triggered by serum withdrawal(%) (VSMC-E1A [1]; VSMC-E1A, 1 mM, pretreated 2 hours then 3 hours with or without calf serum, control increment taken as 100%): 21 ± 3 %
- Chromatin fragments (%) (VSMC-E1A [1]; VSMC-E1A, 10% CS, 1 mM ouabain, 1 hr preincubation, 6 hours): 1.5 ± 0.3 %
- Chromatin fragments (%) (VSMC-E1A [1]; VSMC-E1A, CS-free, 1 mM ouabain, 1 hr preincubation, 6 hours): 5.7 ± 0.6 %
- baseline and serum withdrawal-induced chromatin cleavage (VSMC-E1A [1]; VSMC-E1A, ouabain added 1 hour before, FIG. 2a): blocked baseline as well as serum withdrawal-induced chromatin cleavage
- Chromatin fragments (%) (VSMC-E1A [1]; ouabain-treated VSMC-E1A, 1 mM, 10% CS, medium [Na+]o=14, [K+]o=128 mM, 1 hr + 6 hours): 5.0%
- Chromatin fragments (%) (VSMC-E1A [1]; ouabain-treated VSMC-E1A, 1 mM, 10% CS, medium [Na+]o=137, [K+]o=5 mM, 1 hr + 6 hours): 1.9%
- Chromatin fragments (%) (VSMC-E1A [1]; ouabain-treated VSMC-E1A, 1 mM, CS-free, medium [Na+]o=14, [K+]o=128 mM, 1 hr + 6 hours): 32.0%
- Chromatin fragments (%) (VSMC-E1A [1]; ouabain-treated VSMC-E1A, 1 mM, CS-free, medium [Na+]o=137, [K+]o=5 mM, 1 hr + 6 hours): 6.3%
- intracellular Na^+ content (VSMC-E1A [2]; VSMC-E1A, after 2 hours of 1 mM ouabain (from 38±8)): 283±30 nmol/mg proteins
- K^+i content (VSMC-E1A [2]; VSMC-E1A, after 2 hours of 1 mM ouabain (from 405±41)): 131±19 nmol/mg proteins
- Na^+i and K^+i content on prolongation of incubation (VSMC-E1A [2]; VSMC-E1A, ouabain for up to 5 hours versus 2 hours): did not significantly modify
- Intracellular cations K^+i (VSMC-E1A [2]; medium [Na+]o=14, [K+]o=128 mM): 293 nmol/mg prot
- Intracellular cations Na^+i (VSMC-E1A [2]; medium [Na+]o=14, [K+]o=128 mM): 51 nmol/mg prot
- Intracellular cations K^+i (VSMC-E1A [2]; medium [Na+]o=137, [K+]o=5 mM): 99 nmol/mg prot
- Intracellular cations Na^+i (VSMC-E1A [2]; medium [Na+]o=137, [K+]o=5 mM): 312 nmol/mg prot

Structure (SMILES): CN[C@@H]1C[C@H]2O[C@@](C)([C@@H]1OC)n1c3ccccc3c3c4c(c5c6ccccc6n2c5c31)C(=O)NC4 [staurosporine]
- content of chromatin fragments (VSMC-E1A [1]; VSMC-E1A, 6 hr, serum-supplied medium, 0.25 μM staurosporine, 1 μM okadaic acid): 30.1±4.7%

Structure (SMILES): OC[C@@H](O)[C@@H](O)[C@H](O)[C@H](O)CO [mannitol]
- chromatin cleavage under hyperosmotic shrinkage (VSMC-E1A [1]; control and ouabain-treated VSMC-E1A, 350 mM mannitol, 6 hr): insensitive to hyperosmotic shrinkage
